Assays:
[1] = molecular target: T1, human estrogen receptor α (hERα) (Homo sapiens, UniProt P03372); assay: In vitro bioassay of estrogenic agonistic transactivation in recombinant CHO cells (hERα, rat oxytocin promoter, luciferase reporter); format: cell-based
T1 sequence (P03372 1-595): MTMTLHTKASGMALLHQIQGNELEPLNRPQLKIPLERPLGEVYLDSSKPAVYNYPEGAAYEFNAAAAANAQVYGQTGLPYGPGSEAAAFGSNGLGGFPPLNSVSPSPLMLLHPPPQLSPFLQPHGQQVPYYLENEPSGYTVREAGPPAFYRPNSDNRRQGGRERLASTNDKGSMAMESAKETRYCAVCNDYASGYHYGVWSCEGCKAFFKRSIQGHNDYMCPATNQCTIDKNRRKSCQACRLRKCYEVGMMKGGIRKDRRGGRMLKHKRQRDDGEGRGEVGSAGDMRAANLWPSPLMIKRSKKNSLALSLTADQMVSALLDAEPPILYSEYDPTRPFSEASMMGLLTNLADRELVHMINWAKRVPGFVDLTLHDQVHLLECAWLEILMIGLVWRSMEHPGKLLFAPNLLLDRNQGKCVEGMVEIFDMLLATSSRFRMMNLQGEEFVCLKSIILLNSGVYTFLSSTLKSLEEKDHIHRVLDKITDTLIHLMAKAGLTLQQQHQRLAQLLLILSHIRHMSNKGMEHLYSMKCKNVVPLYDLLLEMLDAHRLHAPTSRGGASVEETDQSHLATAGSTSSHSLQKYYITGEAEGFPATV
Method: (§1) The agonistic activity of compounds on the estrogen receptors was determined in an in vitro bioassay with recombinant Chinese hamster ovary (CHO) cells stably co-transfected with the human estrogen receptor α (hERα) or β (hERβ), the rat oxytocin promoter (RO) and the luciferase reporter gene (LUC). […] A more detailed description of the methodology can be found in De Gooyer M. E., Deckers G. H., Schoonen W. G. E. J., Verheul H. A. M. and Kloosterboer H. J., Steroids, Vol. 68, 2003, pp. 21-30.
(§2) ERα/ERβ selectivity is defined as the ratio ERα-potency/ERβ-potency.

[2] = molecular target: human estrogen receptor β (hERβ) (Homo sapiens, UniProt Q92731); assay: In vitro bioassay of estrogenic agonistic transactivation in recombinant CHO cells (hERβ, rat oxytocin promoter, luciferase reporter); format: cell-based
Chain of human estrogen receptor β (hERβ) (Q92731 whole entry): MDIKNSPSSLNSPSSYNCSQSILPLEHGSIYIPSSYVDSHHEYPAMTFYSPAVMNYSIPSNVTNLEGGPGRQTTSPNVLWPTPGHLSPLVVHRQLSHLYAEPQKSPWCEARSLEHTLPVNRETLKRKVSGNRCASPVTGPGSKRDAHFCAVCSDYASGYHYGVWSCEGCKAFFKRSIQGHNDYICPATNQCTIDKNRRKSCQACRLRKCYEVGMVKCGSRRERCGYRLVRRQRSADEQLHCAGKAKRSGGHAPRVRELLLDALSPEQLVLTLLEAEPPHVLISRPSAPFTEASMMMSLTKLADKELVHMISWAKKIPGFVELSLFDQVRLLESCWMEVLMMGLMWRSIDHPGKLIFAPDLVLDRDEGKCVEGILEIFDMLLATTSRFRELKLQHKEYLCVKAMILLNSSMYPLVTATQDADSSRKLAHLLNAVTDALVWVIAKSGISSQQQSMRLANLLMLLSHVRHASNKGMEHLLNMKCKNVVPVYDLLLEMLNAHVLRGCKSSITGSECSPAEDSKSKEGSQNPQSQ
Method: as §1, §2

[3] = tested on: Cynomolgus monkey uterine tissue (endometrium); assay: Histopathological evaluation of Cynomolgus monkey uterine tissue after 8 week oral treatment; format: in vivo; conditions: 8 weeks, average score per category, grades 0-5
Method: Histopathological evaluation of Cynomolgus monkey uterine tissue was performed by a pathologist after an 8 week oral treatment with the test compound in four animals per treatment group. […] The following morphological characteristics were examined in H&E stained sections, based on the uterine phases of the normal menstrual cycle in Cynomolgus monkeys. • A. Follicular phase-like changes: • loose endometrial stroma • straight endometrial glands • hypertrophy of endometrial epithelium • mitotic figures • hypertrophy of myometrium • early angiogenesis (sprouting or early proliferation) • basal secretion • B. Luteal phase-like changes • pseudodecidually enlarged stromal cells • coiling of endometrial glands • late angiogenesis (spiral artery formation) • vacuolation of endometrial epithelium • luminal secretion • C. Ovariectomized or non-stimulated (atrophic) endometrium • compact endometrial stroma • atrophy of endometrial epithelium • atrophy of endometrial glands • atrophy of myometrium The severity of each of these above-mentioned findings was scored using a scale of grading: • grade 0: finding not present • grade 1: minimal, very few, very small • grade 2: slight, few, small • grade 3: moderate, moderate number, moderate size • grade 4: marked, many, large • grade 5: massive, extensive number, extensive size For each animal this grading was done. Then the average score per treatment group was calculated for each characteristic. Finally, an average score per category, atrophic, follicular- or luteal phase-like, was calculated from the average individual characteristics. A favourable endometrial safety profile for a compound is characterized by less compound-induced follicular phase-like activity combined with more luteal phase-like characteristics and/or atrophic endometrium.

[4] = tested on: progesterone-induced lordosis behavior in female ovariectomised rats; assay: Facilitation of progesterone-induced lordosis behavior in female ovariectomised rats; format: in vivo, rat; conditions: oral dosing at 1 mg/kg.day, three days pre-treatment, then progestagen
Source text: Rat female sexual behavior is hormone dependent. In estrogen-primed female rats progesterone clearly enhances female sexual or lordosis behavior. However, progesterone is not effective in inducing lordosis in ovariectomised females that have not received estrogen (see also J. B. Becker, S. M. Breedlove and D. Crews (Eds.), Behavioral Endocrinology, 1992, pp. 82-84).
Females were pre-treated for three days with test compound followed by treatment with a progestagen on the fourth day. Four hours after progesterone treatment sexual behavior of the female rat was measured in the presence of a male rat by counting the number of lordosis responses during 10 minutes.

[5] = relative to 17β-estradiol: (EC50 17β-estradiol/EC50 test compound)×100%, CHO cells, luciferase

Compound	ERα/ERβ-selectivity (potency) ([1]; ratio ERα-potency/ERβ-potency)	ERα-potency (%) [1, 5] [%]	agonist character at the estrogen β-receptor ([2]; in words)	ERβ-efficacy (%) ([2]; maximal activation relative to maximal activation by 17β-estradiol)	ERβ-potency (%) [2, 5] [%]	Monkey Endometrial profile (scores): Atrophic ([3]; 40 μg/kg once daily oral)	Monkey Endometrial profile (scores): Follicular ([3]; 40 μg/kg once daily oral)	Monkey Endometrial profile (scores): Luteal ([3]; 40 μg/kg once daily oral)	Monkey Endometrial profile (scores): Atrophic ([3]; 200 μg/kg once daily oral)	Monkey Endometrial profile (scores): Follicular ([3]; 200 μg/kg once daily oral)	Monkey Endometrial profile (scores): Luteal ([3]; 200 μg/kg once daily oral)	in vivo estrogenic activity (facilitation of lordosis) [4]
C#C[C@]1(O)C[C@@H](C)[C@H]2[C@@H]3[C@H](CC)Cc4cc(O)ccc4[C@H]3CC[C@@]21C [Compound 8, 7α-ethyl-15β-methyl-19-nor-17α-pregna-1,3,5(10)-trien-20-yne-3,17β-diol]	15.2	23.45	partial agonist	40	1.54	3.0	0.0	0.0	2.3	0.5	0.2	
C#CC1(O)CC(C)C2C3C(CC)Cc4cc(OC(=O)C(C)(C)C)ccc4C3CCC21C (stereo not drawn) [Compound 9a, 3-pivaloyloxy-7α-ethyl-15β-methyl-19-nor-17α-pregna-1,3,5(10)-trien-20-yne-17β-ol]												active estrogenic compounds
C#C[C@]1(O)CC[C@H]2[C@@H]3CCc4cc(O)ccc4[C@H]3CC[C@@]21C [Compound X, 17α-ethynyl-17β-estradiol, reference compound]						0	2.8	0.4				
C[C@]12CC[C@@H]3c4ccc(O)cc4CC[C@H]3[C@@H]1CC[C@@H]2O [Compound Y, 17β-estradiol, reference compound]									0	3.6	0.2	

From patent US7838516B2, “15 β-substituted steroids having selective estrogenic activity” (priority 2004, dated 2010)
